ChEMBL document CHEMBL1201862, “PubChem BioAssay data set” (2004)
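Values below derive from 48-hour exposures of cells grown in 96-well plates, with endpoints linearly interpolated between the two concentrations bracketing the appropriate inhibition level. Here, GI50 denotes the concentration required for 50% inhibition of growth.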 Calls of active or inactive are those of the source. Rule as the data show it: active = GI50 up to about 1.1 µM and inactive = higher.

Key:
Experiment in all cases: NCI anticancer screen, dose series, 48 h
COLO 205 = test system: COLO 205
CCRF-CEM = test system: CCRF-CEM
M14 = test system: M14
SK-OV-3 = test system: SK-OV-3
SNB-19 = test system: SNB-19
HT-29 = test system: HT-29
786-0 = test system: 786-0
Malme-3M = test system: Malme-3M
KM12 = test system: KM12
LXFL 529 = test system: LXFL 529
CAKI-1 = test system: CAKI-1
ACHN = test system: ACHN
RPMI-8226 = test system: RPMI-8226
NCI-H23 = test system: NCI-H23
OVCAR-4 = test system: OVCAR-4
OVCAR-5 = test system: OVCAR-5
SK-MEL-2 = test system: SK-MEL-2
UO-31 = test system: UO-31
KM-20L2 = test system: KM-20L2
HL-60 = test system: HL-60
DMS-273 = test system: DMS-273
HCT-15 = test system: HCT-15
SK-MEL-5 = test system: SK-MEL-5
UACC-257 = test system: UACC-257
SNB-75 = test system: SNB-75
XF498 = test system: XF498
HOP-92 = test system: HOP-92
TK-10 = test system: TK-10
U-251 = test system: U-251
EKVX = test system: EKVX
M19-MEL = test system: M19-MEL
OVCAR-3 = test system: OVCAR-3
MOLT-4 = test system: MOLT-4
UACC-62 = test system: UACC-62
IGROV-1 = test system: IGROV-1
HOP-18 = test system: HOP-18
SK-MEL-28 = test system: SK-MEL-28
RXF 631 = test system: RXF 631
SF-268 = test system: SF-268
RXF 393 = test system: RXF 393
LOX IMVI = test system: LOX IMVI
K562 = test system: K562
HOP-62 = test system: HOP-62
NCI-H460 = test system: NCI-H460
NCI-H226 = test system: NCI-H226
SN12C = test system: SN12C
A498 = test system: A498
A549 = test system: A549
SF-539 = test system: SF-539
SW-620 = test system: SW-620
OVCAR-8 = test system: OVCAR-8
NCI-H522 = test system: NCI-H522
SF-295 = test system: SF-295
SNB-78 = test system: SNB-78
DLD-1 = test system: DLD-1
DMS-114 = test system: DMS-114
HCC 2998 = test system: HCC 2998
SR = test system: SR
HCT-116 = test system: HCT-116

SMILES: C=CCNC(=O)N(CCCCC(NC(C)=O)C(=O)NCc1ccccc1)Cc1ccccc1 (configuration not stated)
- GI50 (COLO 205): > 100 µM (inactive)
- GI50 (CCRF-CEM): > 100 µM (inactive)
- GI50 (M14): > 100 µM (inactive)
- GI50 (SK-OV-3): > 100 µM (inactive)
- GI50 (SNB-19): > 100 µM (inactive)
- GI50 (HT-29): > 100 µM (inactive)
- GI50 (786-0): > 100 µM (inactive)
- GI50 (Malme-3M): > 100 µM (inactive)
- GI50 (KM12): > 100 µM (inactive)
- GI50 (LXFL 529): > 100 µM (inactive)
- GI50 (CAKI-1): > 100 µM (inactive)
- GI50 (ACHN): > 100 µM (inactive)
- GI50 (RPMI-8226): > 100 µM (inactive)
- GI50 (NCI-H23): > 100 µM (inactive)
- GI50 (OVCAR-4): > 100 µM (inactive)
- GI50 (OVCAR-5): > 100 µM (inactive)
- GI50 (SK-MEL-2): > 100 µM (inactive)
- GI50 (UO-31): > 100 µM (inactive)
- GI50 (KM-20L2): > 100 µM (inactive)
- GI50 (HL-60): > 100 µM (inactive)
- GI50 (DMS-273): > 100 µM (inactive)
- GI50 (HCT-15): > 100 µM
- GI50 (SK-MEL-5): > 100 µM (inactive)
- GI50 (UACC-257): > 100 µM (inactive)
- GI50 (SNB-75): > 100 µM (inactive)
- GI50 (XF498): > 100 µM (inactive)
- GI50 (HOP-92): 65.8 µM (inactive)
- GI50 (TK-10): > 100 µM (inactive)
- GI50 (U-251): > 100 µM (inactive)
- GI50 (EKVX): > 100 µM (inactive)
- GI50 (M19-MEL): > 100 µM (inactive)
- GI50 (OVCAR-3): > 100 µM (inactive)
- GI50 (MOLT-4): > 100 µM (inactive)
- GI50 (UACC-62): > 100 µM (inactive)
- GI50 (IGROV-1): > 100 µM (inactive)
- GI50 (HOP-18): > 100 µM (inactive)
- GI50 (SK-MEL-28): > 100 µM (inactive)
- GI50 (RXF 631): > 100 µM (inactive)
- GI50 (SF-268): > 100 µM (inactive)
- GI50 (RXF 393): > 100 µM (inactive)
- GI50 (LOX IMVI): > 100 µM (inactive)
- GI50 (K562): > 100 µM (inactive)
- GI50 (HOP-62): > 100 µM (inactive)
- GI50 (NCI-H460): > 100 µM (inactive)
- GI50 (NCI-H226): > 100 µM (inactive)
- GI50 (SN12C): > 100 µM (inactive)
- GI50 (A498): > 100 µM (inactive)
- GI50 (A549): > 100 µM (inactive)
- GI50 (SF-539): > 100 µM (inactive)
- GI50 (SW-620): > 100 µM (inactive)
- GI50 (OVCAR-8): > 100 µM (inactive)
- GI50 (NCI-H522): > 100 µM (inactive)
- GI50 (SF-295): > 100 µM (inactive)

SMILES: CCOC(=O)C(=O)Nc1c(C)cccc1CC
- GI50 (CCRF-CEM): > 100 µM (inactive)
- GI50 (M14): > 100 µM (inactive)
- GI50 (SK-OV-3): > 100 µM (inactive)
- GI50 (SNB-19): > 100 µM (inactive)
- GI50 (SNB-78): > 100 µM (inactive)
- GI50 (HT-29): > 100 µM (inactive)
- GI50 (786-0): > 100 µM (inactive)
- GI50 (Malme-3M): > 100 µM (inactive)
- GI50 (KM12): > 100 µM (inactive)
- GI50 (LXFL 529): > 100 µM (inactive)
- GI50 (CAKI-1): > 100 µM (inactive)
- GI50 (ACHN): > 100 µM (inactive)
- GI50 (RPMI-8226): > 100 µM (inactive)
- GI50 (NCI-H23): > 100 µM (inactive)
- GI50 (OVCAR-4): > 100 µM (inactive)
- GI50 (OVCAR-5): > 100 µM (inactive)
- GI50 (SK-MEL-2): > 100 µM (inactive)
- GI50 (DLD-1): > 100 µM (inactive)
- GI50 (UO-31): > 100 µM (inactive)
- GI50 (KM-20L2): > 100 µM (inactive)
- GI50 (HL-60): > 100 µM (inactive)
- GI50 (SK-MEL-5): > 100 µM (inactive)
- GI50 (UACC-257): > 100 µM (inactive)
- GI50 (XF498): > 100 µM (inactive)
- GI50 (HOP-92): > 100 µM (inactive)
- GI50 (TK-10): > 100 µM (inactive)
- GI50 (U-251): > 100 µM (inactive)
- GI50 (EKVX): > 100 µM (inactive)
- GI50 (M19-MEL): > 100 µM (inactive)
- GI50 (OVCAR-3): > 100 µM (inactive)
- GI50 (MOLT-4): > 100 µM (inactive)
- GI50 (DMS-114): > 100 µM (inactive)
- GI50 (UACC-62): > 100 µM (inactive)
- GI50 (IGROV-1): > 100 µM (inactive)
- GI50 (HOP-18): > 100 µM (inactive)
- GI50 (HCC 2998): > 100 µM (inactive)
- GI50 (SK-MEL-28): > 100 µM (inactive)
- GI50 (RXF 631): > 100 µM (inactive)
- GI50 (SF-268): > 100 µM (inactive)
- GI50 (RXF 393): > 100 µM (inactive)
- GI50 (LOX IMVI): > 100 µM (inactive)
- GI50 (K562): > 100 µM (inactive)
- GI50 (SR): > 100 µM (inactive)
- GI50 (HOP-62): > 100 µM (inactive)
- GI50 (NCI-H460): > 100 µM (inactive)
- GI50 (NCI-H226): > 100 µM (inactive)
- GI50 (SN12C): > 100 µM (inactive)
- GI50 (HCT-116): > 100 µM (inactive)
- GI50 (A549): > 100 µM (inactive)
- GI50 (SF-539): > 100 µM (inactive)
- GI50 (SW-620): > 100 µM (inactive)
- GI50 (OVCAR-8): > 100 µM (inactive)
- GI50 (NCI-H522): > 100 µM (inactive)
- GI50 (SF-295): > 100 µM (inactive)
